Experiments:
Type in all cases: in vivo
[1] = system: lambsquarters (Chenopodium album, CHEAL); assay: Pre-emerge test, greenhouse herbicide activity screening; conditions: rating scale 0-100, 14 days after application
Procedure, shortened: (§1)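 Plants grown in 10 cm pots of sandy loam mix received acetone-dissolved compounds through a moving flat-fan nozzle. Doses ranged from 15 to 1000 g ai/ha. Pre-emerge pots were seeded one day earlier, post-emerge pots 8–21 days earlier. Fourteen days on, each pot was graded 0–100 for damage.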

[2] = system: velvetleaf (Abutilon theophrasti, ABUTH); assay: as above; conditions: rating scale 0-100, 14 days after application
Procedure, shortened: as §1

[3] = system: sicklepod (Cassia obtusifolia, CASOB); assay: as above; conditions: rating scale 0-100, 14 days after application
Procedure, shortened: as §1

[4] = system: large crabgrass (Digitaria sanguinalis, DIGSA); assay: as above; conditions: rating scale 0-100, 14 days after application
Procedure, shortened: as §1

[5] = system: green foxtail (Setaria viridis, SETVI); assay: as above; conditions: rating scale 0-100, 14 days after application
Procedure, shortened: as §1

[6] = system: barnyardgrass (Echinochloa crus-galli, ECHCG); assay: as above; conditions: rating scale 0-100, 14 days after application
Procedure, shortened: as §1

[7] = system: ivyleaf morningglory (Ipomoea hederacea, IPOHE); assay: as above; conditions: rating scale 0-100, 14 days after application
Procedure, shortened: as §1

[8] = system: johnsongrass (Sorghum halepense, SORHA); assay: as above; conditions: rating scale 0-100, 14 days after application
Procedure, shortened: as §1

[9] = system: field corn (Zea mays L., var. Dekalb 535, CORN); assay: Pre-emerge test, crop safety; conditions: rating scale 0-100, 14 days after application
Procedure, shortened: (§2)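 Compounds in acetone were track-sprayed at 15-1000 g ai/ha (187 l/ha) on sandy loam pots: pre-emerge one day after seeding, post-emerge at 2-3 leaf stage with 0.25% v/v non-ionic surfactant. Phytotoxicity was rated 14 days later on a 0 (no damage) to 100 (complete death) scale.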

[10] = system: upland rice (Oryza sp., var. Tebonnet, RICE); assay: Pre-emerge test, crop safety; conditions: rating scale 0-100, 14 days after application
Procedure, shortened: as §2

[11] = system: field corn (Zea mays L., var. Dekalb 535, CORN); assay: Post-emerge test, crop safety; conditions: rating scale 0-100 (0 no damage, 100 complete death), 14 days after application
Procedure, shortened: (§3)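 Each test used a mechanized track sprayer delivering 187 l/ha of acetone solution at 15–1000 g ai/ha. Post-emerge foliage at 2–3 leaves was treated with added 0.25% v/v non-ionic surfactant and bottom-watered only. Injury was assessed on day 14, where 100 means total kill.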

[12] = system: upland rice (Oryza sp., var. Tebonnet, RICE); assay: Post-emerge test, crop safety; conditions: rating scale 0-100 (0 no damage, 100 complete death), 14 days after application
Procedure, shortened: as §3

[13] = system: lambsquarters (Chenopodium album, CHEAL); assay: Post-emerge test, greenhouse herbicide activity screening; conditions: rating scale 0-100 (0 no damage, 100 complete death), 14 days after application
Procedure, shortened: as §2

[14] = system: velvetleaf (Abutilon theophrasti, ABUTH); assay: as above; conditions: rating scale 0-100 (0 no damage, 100 complete death), 14 days after application
Procedure, shortened: as §2

[15] = system: redroot pigweed (Amaranthus retroflexus, AMARE); assay: as above; conditions: rating scale 0-100 (0 no damage, 100 complete death), 14 days after application
Procedure, shortened: as §2

[16] = system: sicklepod (Cassia obtusifolia, CASOB); assay: as above; conditions: rating scale 0-100 (0 no damage, 100 complete death), 14 days after application
Procedure, shortened: as §2

[17] = system: large crabgrass (Digitaria sanguinalis, DIGSA); assay: as above; conditions: rating scale 0-100 (0 no damage, 100 complete death), 14 days after application
Procedure, shortened: as §2

[18] = system: green foxtail (Setaria viridis, SETVI); assay: as above; conditions: rating scale 0-100 (0 no damage, 100 complete death), 14 days after application
Procedure, shortened: as §2

[19] = system: barnyardgrass (Echinochloa crus-galli, ECHCG); assay: as above; conditions: rating scale 0-100 (0 no damage, 100 complete death), 14 days after application
Procedure, shortened: as §2

[20] = system: ivyleaf morningglory (Ipomoea hederacea, IPOHE); assay: as above; conditions: rating scale 0-100 (0 no damage, 100 complete death), 14 days after application
Procedure, shortened: as §2

[21] = system: johnsongrass (Sorghum halepense, SORHA); assay: as above; conditions: rating scale 0-100 (0 no damage, 100 complete death), 14 days after application
Procedure, shortened: as §2

[22] = system: redroot pigweed (Amaranthus retroflexus, AMARE); assay: Pre-emerge test, greenhouse herbicide activity screening; conditions: rating scale 0-100, 14 days after application
Procedure, shortened: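 Rating: 0–100 visual injury, 14 DAA. Application: acetone, 187 l/ha, 15–1000 g ai/ha, flat-fan track sprayer with nozzle 40–45 cm above soil or canopy. Post-emerge runs used 0.25% v/v surfactant on 2–3 leaf plants.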

## C#CCOC(=O)C(Cl)Cc1c(OC)c(Cl)cc(F)c1-n1c(=O)cc(C(F)(F)F)n(C)c1=O (single isomer, unassigned) [14-19]
[1]; 63 g ai/ha
  Pre-emerge herbicidal activity, phytotoxicity rating CHEAL: 0
[1]; 250 g ai/ha
  Pre-emerge herbicidal activity, phytotoxicity rating CHEAL: 80
[2]; 63 g ai/ha
  Pre-emerge herbicidal activity, phytotoxicity rating ABUTH: 0
[2]; 250 g ai/ha
  Pre-emerge herbicidal activity, phytotoxicity rating ABUTH: 50
[3]; 63 g ai/ha
  Pre-emerge herbicidal activity, phytotoxicity rating CASOB: 0
[3]; 250 g ai/ha
  Pre-emerge herbicidal activity, phytotoxicity rating CASOB: 0
[4]; 63 g ai/ha
  Pre-emerge herbicidal activity, phytotoxicity rating DIGSA: 0
[4]; 250 g ai/ha
  Pre-emerge herbicidal activity, phytotoxicity rating DIGSA: 80
[5]; 63 g ai/ha
  Pre-emerge herbicidal activity, phytotoxicity rating SETVI: 0
[5]; 250 g ai/ha
  Pre-emerge herbicidal activity, phytotoxicity rating SETVI: 0
[6]; 63 g ai/ha
  Pre-emerge herbicidal activity, phytotoxicity rating ECHCG: 0
[6]; 250 g ai/ha
  Pre-emerge herbicidal activity, phytotoxicity rating ECHCG: 0
[7]; 63 g ai/ha
  Pre-emerge herbicidal activity, phytotoxicity rating IPOHE: 0
[7]; 250 g ai/ha
  Pre-emerge herbicidal activity, phytotoxicity rating IPOHE: 0
[8]; 63 g ai/ha
  Pre-emerge herbicidal activity, phytotoxicity rating SORHA: 0
[8]; 250 g ai/ha
  Pre-emerge herbicidal activity, phytotoxicity rating SORHA: 0
[9]; 63 g ai/ha
  Pre-emerge phytotoxicity rating, crop damage CORN: 0
[9]; 250 g ai/ha
  Pre-emerge phytotoxicity rating, crop damage CORN: 0
[10]; 63 g ai/ha
  Pre-emerge phytotoxicity rating, crop damage RICE: 0
[10]; 250 g ai/ha
  Pre-emerge phytotoxicity rating, crop damage RICE: 0
[11]; Rate 63 g ai/ha
  Post-emerge phytotoxicity rating CORN (crop damage): 0
[11]; Rate 250 g ai/ha
  Post-emerge phytotoxicity rating CORN (crop damage): 40
[12]; Rate 63 g ai/ha
  Post-emerge phytotoxicity rating RICE (crop damage): 0
[12]; Rate 250 g ai/ha
  Post-emerge phytotoxicity rating RICE (crop damage): 20
[13]; Rate 63 g ai/ha
  Post-emerge Herbicidal Activity, phytotoxicity rating CHEAL: 90
[13]; Rate 250 g ai/ha
  Post-emerge Herbicidal Activity, phytotoxicity rating CHEAL: 100
[14]; Rate 63 g ai/ha
  Post-emerge Herbicidal Activity, phytotoxicity rating ABUTH: 60
[14]; Rate 250 g ai/ha
  Post-emerge Herbicidal Activity, phytotoxicity rating ABUTH: 100
[15]; Rate 63 g ai/ha
  Post-emerge Herbicidal Activity, phytotoxicity rating AMARE: 90
[15]; Rate 250 g ai/ha
  Post-emerge Herbicidal Activity, phytotoxicity rating AMARE: 100
[16]; Rate 63 g ai/ha
  Post-emerge Herbicidal Activity, phytotoxicity rating CASOB: 40
[16]; Rate 250 g ai/ha
  Post-emerge Herbicidal Activity, phytotoxicity rating CASOB: 70
[17]; Rate 63 g ai/ha
  Post-emerge Herbicidal Activity, phytotoxicity rating DIGSA: 100
[17]; Rate 250 g ai/ha
  Post-emerge Herbicidal Activity, phytotoxicity rating DIGSA: 100
[18]; Rate 63 g ai/ha
  Post-emerge Herbicidal Activity, phytotoxicity rating SETVI: 0
[18]; Rate 250 g ai/ha
  Post-emerge Herbicidal Activity, phytotoxicity rating SETVI: 30
[19]; Rate 63 g ai/ha
  Post-emerge Herbicidal Activity, phytotoxicity rating ECHCG: 100
[19]; Rate 250 g ai/ha
  Post-emerge Herbicidal Activity, phytotoxicity rating ECHCG: 100
[20]; Rate 63 g ai/ha
  Post-emerge Herbicidal Activity, phytotoxicity rating IPOHE: 30
[20]; Rate 250 g ai/ha
  Post-emerge Herbicidal Activity, phytotoxicity rating IPOHE: 90
[21]; Rate 63 g ai/ha
  Post-emerge Herbicidal Activity, phytotoxicity rating SORHA: 0
[21]; Rate 250 g ai/ha
  Post-emerge Herbicidal Activity, phytotoxicity rating SORHA: 0
[22]; 63 g ai/ha
  Pre-emerge herbicidal activity, phytotoxicity rating AMARE: 0
[22]; 250 g ai/ha
  Pre-emerge herbicidal activity, phytotoxicity rating AMARE: 90

## C#CCOC(=O)C(Cl)Cc1c(OC)c(Cl)cc(F)c1-n1c(=O)cc(C(F)(F)F)n(C)c1=O (single isomer, unassigned) [14-20]
[1]; 63 g ai/ha
  Pre-emerge herbicidal activity, phytotoxicity rating CHEAL: 0
[1]; 250 g ai/ha
  Pre-emerge herbicidal activity, phytotoxicity rating CHEAL: 80
[2]; 63 g ai/ha
  Pre-emerge herbicidal activity, phytotoxicity rating ABUTH: 0
[2]; 250 g ai/ha
  Pre-emerge herbicidal activity, phytotoxicity rating ABUTH: 90
[3]; 63 g ai/ha
  Pre-emerge herbicidal activity, phytotoxicity rating CASOB: 0
[3]; 250 g ai/ha
  Pre-emerge herbicidal activity, phytotoxicity rating CASOB: 0
[4]; 63 g ai/ha
  Pre-emerge herbicidal activity, phytotoxicity rating DIGSA: 0
[4]; 250 g ai/ha
  Pre-emerge herbicidal activity, phytotoxicity rating DIGSA: 90
[5]; 63 g ai/ha
  Pre-emerge herbicidal activity, phytotoxicity rating SETVI: 0
[5]; 250 g ai/ha
  Pre-emerge herbicidal activity, phytotoxicity rating SETVI: 30
[6]; 63 g ai/ha
  Pre-emerge herbicidal activity, phytotoxicity rating ECHCG: 0
[6]; 250 g ai/ha
  Pre-emerge herbicidal activity, phytotoxicity rating ECHCG: 40
[7]; 63 g ai/ha
  Pre-emerge herbicidal activity, phytotoxicity rating IPOHE: 0
[7]; 250 g ai/ha
  Pre-emerge herbicidal activity, phytotoxicity rating IPOHE: 0
[8]; 63 g ai/ha
  Pre-emerge herbicidal activity, phytotoxicity rating SORHA: 0
[8]; 250 g ai/ha
  Pre-emerge herbicidal activity, phytotoxicity rating SORHA: 20
[9]; 63 g ai/ha
  Pre-emerge phytotoxicity rating, crop damage CORN: 0
[9]; 250 g ai/ha
  Pre-emerge phytotoxicity rating, crop damage CORN: 50
[10]; 63 g ai/ha
  Pre-emerge phytotoxicity rating, crop damage RICE: 0
[10]; 250 g ai/ha
  Pre-emerge phytotoxicity rating, crop damage RICE: 0
[11]; Rate 63 g ai/ha
  Post-emerge phytotoxicity rating CORN (crop damage): 0
[11]; Rate 250 g ai/ha
  Post-emerge phytotoxicity rating CORN (crop damage): 80
[12]; Rate 63 g ai/ha
  Post-emerge phytotoxicity rating RICE (crop damage): 0
[12]; Rate 250 g ai/ha
  Post-emerge phytotoxicity rating RICE (crop damage): 10
[13]; Rate 63 g ai/ha
  Post-emerge Herbicidal Activity, phytotoxicity rating CHEAL: 80
[13]; Rate 250 g ai/ha
  Post-emerge Herbicidal Activity, phytotoxicity rating CHEAL: 100
[14]; Rate 63 g ai/ha
  Post-emerge Herbicidal Activity, phytotoxicity rating ABUTH: 99
[14]; Rate 250 g ai/ha
  Post-emerge Herbicidal Activity, phytotoxicity rating ABUTH: 100
[15]; Rate 63 g ai/ha
  Post-emerge Herbicidal Activity, phytotoxicity rating AMARE: 95
[15]; Rate 250 g ai/ha
  Post-emerge Herbicidal Activity, phytotoxicity rating AMARE: 100
[16]; Rate 63 g ai/ha
  Post-emerge Herbicidal Activity, phytotoxicity rating CASOB: 0
[16]; Rate 250 g ai/ha
  Post-emerge Herbicidal Activity, phytotoxicity rating CASOB: 50
[17]; Rate 63 g ai/ha
  Post-emerge Herbicidal Activity, phytotoxicity rating DIGSA: 100
[17]; Rate 250 g ai/ha
  Post-emerge Herbicidal Activity, phytotoxicity rating DIGSA: 100
[18]; Rate 63 g ai/ha
  Post-emerge Herbicidal Activity, phytotoxicity rating SETVI: 0
[18]; Rate 250 g ai/ha
  Post-emerge Herbicidal Activity, phytotoxicity rating SETVI: 50
[19]; Rate 63 g ai/ha
  Post-emerge Herbicidal Activity, phytotoxicity rating ECHCG: 100
[19]; Rate 250 g ai/ha
  Post-emerge Herbicidal Activity, phytotoxicity rating ECHCG: 100
[20]; Rate 63 g ai/ha
  Post-emerge Herbicidal Activity, phytotoxicity rating IPOHE: 50
[20]; Rate 250 g ai/ha
  Post-emerge Herbicidal Activity, phytotoxicity rating IPOHE: 70
[21]; Rate 63 g ai/ha
  Post-emerge Herbicidal Activity, phytotoxicity rating SORHA: 10
[21]; Rate 250 g ai/ha
  Post-emerge Herbicidal Activity, phytotoxicity rating SORHA: 90
[22]; 63 g ai/ha
  Pre-emerge herbicidal activity, phytotoxicity rating AMARE: 50
[22]; 250 g ai/ha
  Pre-emerge herbicidal activity, phytotoxicity rating AMARE: 100

Source: patent US6355799B1, “Substituted benzene compounds, process for their preparation, and herbicidal and defoliant compositions containing them” (ISK Americas Incorporated, priority 1997, dated 2002)
